In patent US20220306617A1, “SUBSTITUTED 1,3-PHENYL HETEROARYL DERIVATIVES AND THEIR USE IN THE TREATMENT OF DISEASE” (NOVARTIS AG, priority 2019, published 2022):
Counter-ions that a name gives are not always drawn.

Molecular target: T1, abc isoform of human TMEM16A channel expressed in CHO cells (Homo sapiens, UniProt Q5XXA6, DEL476-501)
T1 construct: expressed in transfected cells; host or cells: CHO cells, doxycycline-inducible expression under Blasticidin/Zeocin selection
T1 sequence (Q5XXA6 with tags, fused parts or gaps isoform Q5XXA6-5 DEL539-564): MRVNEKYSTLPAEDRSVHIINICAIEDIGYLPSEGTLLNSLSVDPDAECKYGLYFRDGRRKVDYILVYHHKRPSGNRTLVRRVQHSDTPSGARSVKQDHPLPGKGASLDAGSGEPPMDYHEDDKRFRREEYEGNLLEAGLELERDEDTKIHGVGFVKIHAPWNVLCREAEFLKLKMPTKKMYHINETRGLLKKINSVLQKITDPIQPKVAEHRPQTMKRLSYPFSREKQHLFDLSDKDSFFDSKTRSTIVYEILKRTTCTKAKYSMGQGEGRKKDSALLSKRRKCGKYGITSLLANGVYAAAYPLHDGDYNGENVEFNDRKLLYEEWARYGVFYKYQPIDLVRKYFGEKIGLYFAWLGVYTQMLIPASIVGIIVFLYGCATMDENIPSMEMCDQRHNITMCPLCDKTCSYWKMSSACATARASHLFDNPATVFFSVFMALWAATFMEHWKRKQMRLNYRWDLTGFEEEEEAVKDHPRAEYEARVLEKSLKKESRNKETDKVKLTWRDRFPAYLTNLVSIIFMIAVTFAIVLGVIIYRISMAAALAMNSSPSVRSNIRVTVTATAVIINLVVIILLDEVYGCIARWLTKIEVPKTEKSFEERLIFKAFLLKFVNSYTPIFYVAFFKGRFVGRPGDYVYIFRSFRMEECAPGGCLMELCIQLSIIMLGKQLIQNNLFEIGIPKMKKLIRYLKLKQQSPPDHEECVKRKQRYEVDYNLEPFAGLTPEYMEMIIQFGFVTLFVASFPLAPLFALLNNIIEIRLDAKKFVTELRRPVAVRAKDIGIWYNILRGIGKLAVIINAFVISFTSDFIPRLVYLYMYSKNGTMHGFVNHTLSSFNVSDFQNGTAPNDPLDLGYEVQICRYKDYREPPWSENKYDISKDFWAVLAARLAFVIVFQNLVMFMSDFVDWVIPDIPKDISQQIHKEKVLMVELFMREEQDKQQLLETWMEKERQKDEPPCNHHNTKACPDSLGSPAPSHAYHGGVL
Test: Automated patch clamping (QPatch) assay to measure TMEM16A activity in whole-cell
Assay type: cell-based
Conditions: for EC50: CHO cells expressing human TMEM16A (abc), whole-cell automated patch clamp, Hill fit, read-out: TMEM16A QPATCH assay EC50 V3 EC50; for Emax: CHO, read-out: TMEM16A QPATCH assay EC50 V3 Assay Window (% TMEM16A max activation)
Method in brief: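 Whole-cell currents were recorded by planar automated patch clamp from induced CHO cells (doxycycline 1 μg/mL, 18-24 h), using a −70 mV hold, +70 mV step and −90 to +70 mV ramp. Values: Hill-fitted EC50, and activation scaled between vehicle current and reference-potentiator maximum; 0.3% DMSO final.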

[1] = maximum current at highest dose relative to reference potentiator at maximal concentration (upper limit) and vehicle (lower limit)

| EC50 | Emax [1] | TMEM16A QPATCH assay EC50 V3 Assay Window (% TMEM16A max activation) [1] | SMILES |
| --- | --- | --- | --- |
| 0.09 µM | 69% |  | COC(=O)[C@@H](NC(=O)c1cnc(-c2cccc(-c3cc(C(=O)N[C@@H](C)C4CC4)n[nH]3)c2)o1)C(C)C [Example 1.7, (S)-Methyl 2-(2-(3-(3-(((S)-1-Cyclopropylethyl)Carbamoyl)-1H-Pyrazol-5-yl)Phenyl)Oxazole-5-Carboxamido)-3-Methylbutanoate] |
| 0.26 µM | 76% |  | CCC(CC)NC(=O)c1cc(-c2cccc(-c3ncc(C(=O)NC(C)(C)C(=O)OC(C)(C)C)o3)c2)[nH]n1 [Example 3.69, Tert-Butyl 2-Methyl-2-(2-(3-(3-(Pentan-3-Ylcarbamoyl)-1H-Pyrazol-5-Yl)Phenyl)Oxazole-5-Carboxamido)Propanoatehexafluorophosphatepropanoate Hexafluorophosphate] |
| 0.65 µM | 111% |  | CCC(CC)NC(=O)c1cnc(-c2cccc(-c3cc(C(=O)N[C@@H](CC(C)C)C(=O)NCC(=O)OC(C)(C)C)n[nH]3)c2)o1 [Example 3.57, (S)-Tert-Butyl 2-(4-Methyl-2-(5-(3-(5-(Pentan-3-Ylcarbamoyl)Oxazol-2-Yl)Phenyl)-1H-Pyrazole-3-Carboxamido)Pentanamido)Acetate] |
| 0.42 µM | 161% |  | CCC(CC)NC(=O)c1cnc(-c2cccc(-c3nc(C(=O)NC(CC)CC)n(CCN4CCCCC4)n3)c2)o1 [Example 15.0, N-(Pentan-3-Yl)-2-(3-(5-(Pentan-3-Ylcarbamoyl)-1-(2-(Piperidin-1-Yl)Ethyl)-1H-1,2,4-Triazol-3-Yl)Phenyl)Oxazole-5-Carboxamide] |
| 0.14 µM | 67% |  | CCC(CC)NC(=O)c1cnc(-c2cccc(-c3cc(C(=O)NCc4ccccc4)n[nH]3)c2)o1 [Example 3.16, 2-(3-(3-(Benzylcarbamoyl)-1H-Pyrazol-5-Yl)Phenyl)-N-(Pentan-3-Yl)Oxazole-5-Carboxamide] |
| 0.04 µM | 76% |  | CCC(CC)NC(=O)c1cnc(-c2cccc(-c3cc(C(=O)N[C@@H](C)CC)n[nH]3)c2)o1 [Example 3.24, (S)-2-(3-(3-(Sec-Butylcarbamoyl)-1H-Pyrazol-5-Yl)Phenyl)-N-(Pentan-3-Yl)Oxazole-5-Carboxamide] |
| 0.04 µM | 124% |  | CCC(CC)NC(=O)c1cnc(-c2cccc(-c3cc(C(=O)NCC4CCC4)n[nH]3)c2)o1 [Example 3.5, 2-(3-(3-((Cyclobutylmethyl)Carbamoyl)-1H-Pyrazol-5-Yl)Phenyl)-N-(Pentan-3-Yl)Oxazole-5-Carboxamide] |
| 0.33 µM | 154% |  | CCC(CC)NC(=O)c1cnc(-c2cccc(-c3nc(C(=O)NC(CC)CC)n(CCNCc4ccccc4)n3)c2)o1 [Example 15.6, 2-(3-(1-(2-(Benzylamino)Ethyl)-5-(Pentan-3-Ylcarbamoyl)-1H-1,2,4-Triazol-3-Yl)Phenyl)-N-(Pentan-3-Yl)Oxazole-5-Carboxamide] |
| 0.75 µM | 72% |  | CCC(CC)NC(=O)c1cc(-c2cccc(-c3ncc(C(=O)N[C@H](C)C4CCCCC4)o3)c2)[nH]n1 [Example 1.42, (R)-N-(1-Cyclohexylethyl)-2-(3-(3-(Pentan-3-Ylcarbamoyl)-1 H-Pyrazol-5-yl)Phenyl)Oxazole-5-Carboxamide] |
| 0.83 µM | 100% |  | CCC(CC)NC(=O)c1cc(-c2cccc(-c3ncc(C(=O)N[C@@H](CC(C)C)C(=O)NCC(=O)OC(C)(C)C)o3)c2)[nH]n1 [Example 1.16, (S)-Tert-Butyl 2-(4-Methyl-2-(2-(3-(3-(Pentan-3-Ylcarbamoyl)-1 H-Pyrazol-5-yl)Phenyl)Oxazole-5-Carboxamido)Pentanamido)Acetate] |
| 0.08 µM |  | 97% | CCOC(=O)[C@@H](NC(=O)c1cnc(-c2cccc(-c3cc(C(=O)NC(C4CC4)C(F)(F)F)[nH]n3)c2)o1)C(C)C (single isomer, unassigned) [Example 2.3 (ii)] |
| 0.25 µM | 73% |  | C[C@H](NC(=O)c1cnc(-c2cccc(-c3cc(C(=O)N[C@@H](C)C4CC4)n(CC(C)(C)O)n3)c2)o1)C1CC1 [Example 6.3, N-((S)-1-Cyclopropylethyl)-2-(3-(5-(((S)-1-Cyclopropylethyl)Carbamoyl)-1-(2-Hydroxy-2-Methylpropyl)-1H-Pyrazol-3-Yl)Phenyl)Oxazole-5-Carboxamide] |
| 0.03 µM | 83% |  | CCOC(=O)[C@@H](NC(=O)c1cnc(-c2cccc(-c3cc(C(=O)N[C@@H](CC(C)C)C(=O)OC)n[nH]3)c2)o1)C(C)C [Example 2.1, (S)-Methyl 2-(5-(3-(5-(((S)-1-Ethoxy-3-Methyl-1-Oxobutan-2-yl)Carbamoyl)Oxazol-2-Yl)Phenyl)-1H-Pyrazole-3-Carboxamido)-4-Methylpentanoate] |
| 0.58 µM | 94% |  | CCC(CC)NC(=O)c1cc(-c2cccc(-c3ncc(C(=O)NCc4ccc(F)cc4)o3)c2)[nH]n1 [Example 1.17, N-(4-Fluorobenzyl)-2-(3-(3-(Pentan-3-Ylcarbamoyl)-1H-Pyrazol-5-yl)Phenyl)Oxazole-5-Carboxamide] |
| 0.57 µM | 72% |  | CCC(CC)NC(=O)c1cc(-c2cccc(-c3ncc(C(=O)NCC4(C)CCCCC4)o3)c2)[nH]n1 [Example 1.34, N-((1-Methylcyclohexyl)Methyl)-2-(3-(3-(Pentan-3-Ylcarbamoyl)-1 H-Pyrazol-5-Yl)Phenyl)Oxazole-5-Carboxamide] |
| 0.02 µM | 69% |  | CCOC(=O)[C@@H](NC(=O)c1cnc(-c2cccc(-c3cc(C(=O)NC(C)C(F)(F)F)[nH]n3)c2)o1)C(C)C (stereo partly drawn) [Example 3.55, (2S)-Ethyl 3-Methyl-2-(2-(3-(5-((1,1,1-Trifluoropropan-2-Yl)Carbamoyl)-1H-Pyrazol-3-Yl)Phenyl)Oxazole-5-Carboxamido)Butanoate] |
| 0.5 µM | 96% |  | CCC(CC)NC(=O)c1cnc(-c2cccc(-c3cc(C(=O)NCCOC(C)C)n[nH]3)c2)o1 [Example 3.9, 2-(3-(3-((2-Isopropoxyethyl)Carbamoyl)-1H-Pyrazol-5-Yl)Phenyl)-N-(Pentan-3-Yl)Oxazole-5-Carboxamide] |
| 0.51 µM | 69% |  | CCOC(=O)[C@H](NC(=O)c1cnc(-c2cccc(-c3cc(C(=O)NC(CC)CC)[nH]n3)c2)o1)C(C)C [Example 1.44, (R)-Ethyl 3-Methyl-2-(2-(3-(5-(Pentan-3-Ylcarbamoyl)-1H-Pyrazol-3-yl)Phenyl)Oxazole-5-Carboxamido)Butanoate] |
| 0.78 µM | 28% |  | CCC(CC)NC(=O)c1cnc(-c2cccc(-c3cc(C(=O)N[C@@H](C(=O)OC)c4ccccc4)n[nH]3)c2)o1 [Example 3.65, (R)-Methyl 2-(5-(3-(5-(Pentan-3-Ylcarbamoyl)Oxazol-2-Yl)Phenyl)-1H-Pyrazole-3-Carboxamido)-2-Phenylacetate Trifluoroacetate] |
| 0.44 µM | 88% |  | CCOC(=O)CCCCCn1nc(-c2cccc(-c3ncc(C(=O)NC(CC)CC)o3)c2)nc1C(=O)NC(CC)CC [Example 15.11] |
| 0.4 µM | 70% |  | COC(=O)C1(NC(=O)c2cnc(-c3cccc(-c4cc(C(=O)N[C@@H](C)C5CC5)[nH]n4)c3)o2)CCC1 [Example 1.49, (S)-Methyl 1-(2-(3-(5-((1-Cyclopropylethyl)Carbamoyl)-1H-Pyrazol-3-Yl)Phenyl)Oxazole-5-Carboxamido)Cyclobutanecarboxylate] |
| 0.13 µM | 61% |  | CCC(CC)NC(=O)c1cc(-c2cccc(-c3ncc(C(=O)N[C@@H](C)C4CC4)o3)c2)[nH]n1 [Example 1.6, (S)-N-(1-Cyclopropylethyl)-2-(3-(3-(Pentan-3-Ylcarbamoyl)-1H-Pyrazol-5-Yl)Phenyl)Oxazole-5-Carboxamide] |

| SMILES | EC50 | Emax [1] | TMEM16A QPATCH assay EC50 V3 Assay Window (% TMEM16A max activation) [1] |
| --- | --- | --- | --- |
| CCOC(=O)[C@@H](NC(=O)c1cc(-c2cccc(-c3ncc(C(=O)NC(CC)CC)o3)c2)nn1CCOP(=O)(OCC)OCC)C(C)C [Example 11.0, (S)-Ethyl 2-(1-(2-((Diethoxyphosphoryl)Oxy)Ethyl)-3-(3-(5-(Pentan-3-Ylcarbamoyl)Oxazol-2-Yl)Phenyl)-1H-Pyrazole-5-Carboxamido)-3-Methylbutanoate] | 0.61 µM | 128% |  |
